Measurements from patent publication US11957767B2, “Compound targeting prostate specific membrane antigen, and preparation method and application thereof” (YANTAI LANNACHENG BIOTECHNOLOGY CO., LTD., priority 2021, dated 2024).

Columns and labels:
[1] = system: subcutaneous transplanted tumor, prostate cancer (22RV1); assay: Uptake of 177Lu labeled complex in subcutaneous transplanted tumor model mice with prostate cancer (tumor uptake and tissue distribution); assay type: in vivo; details: 24 h after intravenous tail injection of 5 MBq; 22RV1 tumor model mice; FIG. 1
Experimental: The compound in Example 31 or another prior radioactive probe targeting PSMA was injected into subcutaneous transplanted tumor model mice with prostate cancer, and uptake results in tumors and distribution results in tissues were compared. A specific plan is as follows.
The subcutaneous transplanted tumor model mice with prostate cancer (22RV1) were randomly divided into 3 groups including an experimental group, a control group A and a control group B with 3 mice in each group.
[…] complex with purity of greater than 95% was prepared according to the method in Example 31. The complex is obtained by labeling compound 10 in Example 1 with ^177Lu, which was used as medicine B for the experimental group in the experiment. […]
5 MBq of medicine B, the medicine A and the medicine C were intravenously injected into tails of the mice in the experimental group, the control group A and the control group B, respectively. […] The obtained tissues were weighed, and measured by a y counter to obtain the radioactive counting of samples in the experimental group, the control group A and the control group B. Measured data were subtracted from the background, the decay time was corrected, and then average values were obtained. The data was expressed as the percentage of injected dose per gram tissue (% ID/g) of the dose uptake in tissues per gram in the injected dose.

PSMA positive lesions = details: human, in vivo; cited from earlier work

In the case of O=C([O-])CN1CCN(CC(=O)[O-])CCN(CC(=O)NCC2CCC(C(=O)N[C@@H](Cc3ccc4ccccc4c3)C(=O)NCCCC[C@H](NC(=O)N[C@@H](CCC(=O)O)C(=O)O)C(=O)O)CC2)CCN(CC(=O)[O-])CC1.[177Lu+3] (some centres unmarked) [^177Lu-PSMA 617], the uptake in tumors [1] is given as 7.60±1.22 % ID/g and the “patients with no response to therapy” value (PSMA positive lesions) is given as “About 30%”.
